Data published in patent US20050107400A1, “Use of pyrazolopyridines as therapeutic compounds” (priority 2001, published 2005).

Tested on: not given
Test: not given
Conditions: not given

SMILES	melting point [°C]
OCc1ccc2c(-c3ccnc(NC4CCCC4)n3)c(-c3ccc(F)cc3)nn2c1 [Example 33, [3-[2-(Cyclopentylamino)-4-pyrimidinyl]-2-(4-fluorophenyl)pyrazolo-[1,5-a]pyridin-6-yl]methanol]	155 to 156
CCOC(=O)c1ccc2c(-c3ccnc(NC4CCCC4)n3)c(-c3ccc(F)cc3)nn2c1C [Example 81, Ethyl 3-[2-(cyclopentylamino)-4-pyrimidinyl]-2-(4-fluorophenyl)-7-methylpyrazolo[1,5-a]pyridine-6-carboxylate]	155 to 156

Tested on: HSV-1
Test: HSV-1 replication in infected Vero 76 cells, DNA hybridization capture assay
Format: cell-based, herpes simplex virus 1
Conditions: Human alphaherpesvirus 1; HSV-1 in Vero 76 cells, MOI=0.001, 40-48 hours at 37° C.; read-out: IC50
Experimental: a) Tissue Culture and HSV Infection.
Vero 76 cells were maintained in MEM with Earle's salts, L-glutamine, 8% FBS (Hyclone, A-1111-L) and 100 units/mL Penicillin-100 μg/mL Streptomycin. For assay conditions, FBS was reduced to 2%. Cells are seeded into 96-well tissue culture plates at a density of 5×10^4 cells/well after being incubated for 45 min at 37° C. in the presence of HSV-1 or HSV-2 (MOI=0.001). Test compounds are added to the wells and the plates are incubated at 37° C. for 40-48 hours. Cell lysates are prepared as follows: media was removed and replaced with 150 μL/well 0.2 N NaOH with 1% Igepal CA 630 or NP-40. Plates were incubated up to 14 days at room temperature in a humidified chamber to prevent evaporation.
(b) Preparation of Detection DNA.
For the detection probe, a gel-purified, digoxigenin-labeled, […] PCR fragment of the HSV UL-15 sequence was utilized. PCR conditions included 0.5 μM primers, 180 μM dTTP, 20 μM dUTP-digoxigenin (Boehringer Mannheim 1558706), 200 μM each of dATP, dCTP, and dGTP, 1×PCR Buffer II (Perkin Elmer), 2.5 mM MgCl2, 0.025 units/μL of AmpliTaq Gold polymerase (Perkin Elmer), and 5 ng of gel-purified HSV DNA per 100 μL Extension conditions were 10 min at 95° C., followed by 30 cycles of 95° C. for 1 min, 55° C. for 30 sec, and 72° C. for 2 min. The amplification was completed with a 10-min incubation at 72° C. Primers were selected to amplify a 728 bp probe spanning a section of the HSV1 UL15 open reading frame (nucleotides 249-977). Single-stranded transcripts were purified with Promega M13 Wizard kits. The final product was mixed 1:1 with a mixture of 6 M GuSCN, 100 mM EDTA and 200 μg/mL herring sperm DNA and stored at 4° C.
(c) Preparation of Capture Plates.
The capture DNA plasmid (HSV UL13 region in pUC) was linearized by cutting with Xba I, denatured for 15 min at 95° C. and diluted immediately into Reacti-Bind DNA Coating Solution (Pierce, 17250, diluted 1:1 with TE buffer, pH 8) at 1 ng/μL. 75 μL/well were added to Corning (#3922 or 9690) white 96-well plates and incubated at room temperature for at least 4 hrs before washing twice with 300 μL/well 0.2×SSC/0.05% Tween-20 (SSC/T buffer). The plates were then incubated overnight at room temperature with 150 μL/well 0.2 N NaOH, 1% IGEPAL and 10 μg/mL herring sperm DNA.
Twenty-seven (27) μL of cell lysate was combined with 45 μL of hybridization solution (final concentration: 3M GuSCN, 50 mM EDTA, 100 μg/ml salmon sperm DNA, 5×Denhardt's solution, 0.25×APE, and 5 ng of the digoxigenin-labeled detection probe). APE is 1.5 M NH4-acetate, 0.15 M NH4H2 phosphate, and 5 mM EDTA adjusted to pH 6.0. Mineral oil (50 μL) was added to prevent evaporation. The hybridization plates were incubated at 95° C. for 10 minutes to denature the DNA, then incubated at 42° C. overnight. The wells were washed 6× with 300 μL/well SSC/T buffer then incubated with 75 μL/well anti-digoxigenin-HRP-conjugated antibody (Boehringer Mannheim 1207733, 1:5000 in TE) for 30 min at room temperature. The wells were washed 6× with 300 μL/well with PBS/0.05% Tween-20 before 75 μL/well SuperSignal LBA substrate (Pierce) was added. The plates were incubated at room temperature for 30 minutes and chemiluminescence was measured in a Wallac Victor reader.
The following results were obtained for HSV-1.

SMILES	IC50 [nM]
OCc1ccc2c(-c3ccnc(NC4CCCC4)n3)c(-c3ccc(F)cc3)nn2c1 [Example 33, [3-[2-(Cyclopentylamino)-4-pyrimidinyl]-2-(4-fluorophenyl)pyrazolo-[1,5-a]pyridin-6-yl]methanol]	2500
CCc1cccc2c(-c3ccnc(NC4CC4)n3)c(-c3ccc(F)cc3)nn12 [Example 87, N-Cyclopropyl-4-[7-ethyl-2-(4-fluorophenyl)pyrazolo[1,5-a]pyridin-3-yl]-2-pyrimidinamine]	3000
CN(C)C(=O)c1cccc2c(-c3ccnc(NC4CC4)n3)c(-c3ccc(F)cc3)nn12 [Example 88, Dimethyl 2-(4-fluorophenyl)-3-(4-(2-cyclopropylamino)pyrimidinyl)-7-pyrazolo[1,5-a]pyridinylcarboxamide]	15000
Fc1ccc(-c2nn3ccc(N4CCOCC4)cc3c2-c2ccnc(NC3CCCC3)n2)cc1 [Example 89, N-Cyclopentyl-4-[2-(4-fluorophenyl)-5-morpholin-4-ylpyrazolo[1,5-a]pyridin-3-yl]pyrimidin-2-amine]	3600
CN(C)CCCNc1nccc(-c2c(-c3ccc(F)cc3)nn3cc(C(F)(F)F)ccc23)n1 [Example 90, N^1-{4-[2-(4-Fluorophenyl)-6-trifluoromethylpyrazolo[1,5-a]pyridin-3-yl]pyrimidin-2-yl}-N^3,N^3-dimethylpropane-1,3-diamine]	1900
CCCCOc1cc(-c2c(-c3ccc(F)cc3)nn3ccccc23)ccn1 [Example 91, 3-(2-Butoxypyridin-4-yl)-2-(4-fluorophenyl)pyrazolo[1,5-a]pyridine]	11000
COc1ccc(-c2nn3ccccc3c2-c2ccnc(NC3CCCC3)n2)c(OC)c1 [Example 92, N-Cyclopentyl-4-[2-(2,4-dimethoxyphenyl)pyrazolo[1,5-a]pyridin-3-yl]pyrimidin-2-amine]	20000
Fc1ccc(-c2nn3ccc(Cl)cc3c2-c2nc(NC3CCCC3)ncc2Br)cc1 [Example 93, 5-Bromo-4-[5-chloro-2-(4-fluorophenyl)pyrazolo[1,5-a]pyridin-3-yl]-N-cyclopentyl pyrimidin-2-amine]	2600
COc1ccc(-c2nn3cc(C(F)(F)F)ccc3c2-c2ccnc(NC3CC3)n2)cc1 [Example 95, N-Cyclopropyl-4-[2-(4-methoxyphenyl)-6-(trifluoromethyl)pyrazolo[1,5-a]pyridin-3-yl]pyrimidin-2-amine]	27000
CCOC(OCC)(OCC)c1ccc2c(-c3ccnc(NC4CC4)n3)c(-c3ccc(OC)cc3)nn2c1 [Example 96, N-Cyclopropyl-4-[2-(4-methoxyphenyl)-6-(triethoxymethyl)pyrazolo[1,5-a]pyridin-3-yl]pyrimidin-2-amine]	5500
CCOC(=O)c1ccc2c(-c3ccnc(NC4CC4)n3)c(-c3ccc(OC)cc3)nn2c1 [Example 97, Ethyl 3-[2-(cyclopropylamino)pyrimidin-4-yl]-2-(4-methoxyphenyl)-pyrazolo[1,5-a]pyridine-6-carboxylate]	16000
COCCNC(=O)c1ccc2c(-c3ccnc(NC4CC4)n3)c(-c3ccc(OC)cc3)nn2c1 [Example 98, 3-[2-(Cyclopropylamino)pyrimidin-4-yl]-N-(2-methoxyethyl)-2-(4-methoxyphenyl)pyrazolo[1,5-a]pyridine-6-carboxamide]	1100
CCCCOc1cccc2c(-c3ccnc(NC4CCCC4)n3)c(-c3ccc(OC)cc3)nn12 [Example 228, 4-[7-Butoxy-2-(4-methoxyphenyl)pyrazolo[1,5-a]pyridin-3-yl]-N-cyclopentyl-2-pyrimidinamine]	280
CSc1cc(Cl)cc2c(-c3ccnc(NC4CCCC4)n3)c(-c3cccc(Cl)c3)nn12 [Example 229, 4-[5-Chloro-2-(3-chlorophenyl)-7-(methylsulfanyl)pyrazolo[1,5-a]pyridin-3-yl]-N-cyclopentyl-2-pyrimidinamine]	1000
CSc1cccc2c(-c3cc(NC4CCCC4)ncn3)c(-c3ccc(F)cc3)nn12 [Example 230, N-cyclopentyl-6-[2-(4-fluorophenyl)-7-(methylthio)pyrazolo[1,5-a]pyridin-3-yl]pyrimidin-4-amine]	1300
CC(C)Sc1cc(N2CCOCC2)cc2c(-c3ccnc(NC4CCCC4)n3)c(-c3ccc(F)cc3)nn12 [Example 232, N-Cyclopentyl-4-[2-(4-fluorophenyl)-7-(isopropylthio)-5-morpholin-4-ylpyrazolo[1,5-a]pyridin-3-yl]pyrimidin-2-amine]	900
